In experiment [1] the test system is idiopathic pulmonary fibrosis patients. The conditions noted are these: IPF patients; cited from earlier work.
Experiment [2] relates to human microvascular pericytes (PC). Kind of experiment: Short term (7 day) myofibroblast differentiation of PC on low, medium, high stiffness hydrogels with TGF-β1 or bleomycin activation. It is filed as cell-based. The conditions noted are these: 7 days. As to the method: (§1) Human microvascular PC were isolated from a readily available and nearly inexhaustible source, human placental tissue, by microvascular segment explant outgrowth (Sava et al., Microcirculation, 2015, 22:54-67; Ayres-Sander et al., PLoS One, 2013, 8:e60025; Lauridsen et al., FASEB, 2014, 28:1166-1180; Maier et al., Microcirculation, 2010, 17:367-380). Human placental tissue was segmented, digested with collagenase, and the resulting cells were cultured in M199 (Gibco, Grand Island, NY, USA) medium supplemented with 20% FBS (Hyclone Laboratories, Logan, Utah, USA), and 1% penicillin-streptomycin (Gibco). Isolated pericytes were screened by flow cytometry against NG2 (H-300, Santa Cruz Biotechnology), CD90 (K-15, Santa Cruz), CD146 (P1H12, Biolegend, San Diego, Calif., USA), PDGFR-β (18A2, Santa Cruz), α-SMA (1A4, Santa Cruz), SMMHC (N-16, Santa Cruz), CD31 (C20, Santa Cruz), CD34 (581, Sigma) and CD45 (MEM-28, Sigma). As negative control, PC were incubated with isotype matched IgG. Samples were run on a Stratedigm S1000EXi Flow Cytometer (Stratedigm, San Jose, Calif. USA) and analyzed with FlowJo software (Tree Star, Ashland, Oreg., USA).
(§2) Polyacrylamide hydrogels were prepared as previously described (Tse and Engler, Current protocols in cell biology, editorial board, Juan S. Bonifacino et al, 2010, Chapter 10, Unit 10-16). Briefly, amino-silanated coverslips were prepared by treatment with 0.1M NaOH, followed by 3-aminopropyltriethoxysilane (Sigma), and crosslinked with glutaraldehyde. Chloro-silanated coverslips were treated with dichlorodimethylsilane (Sigma). Polyacrylamide solutions of varying stiffness were prepared by altering the concentrations of acrylamide (Bio-Rad, Hercules, Calif., USA) and bis-acrylamide (Bio-Rad). Ammonium persulfate (Sigma) and tetramethylethylenediamine (Bio-Rad) were used as cross-linkers. The solution was placed between the chloro-silanated and amino-silanated coverslips and cross-linked under ambient lighting for 30 minutes, after which the amino-silanated slide, containing the hydrogel, was hydrated in PBS. The ECM components were chemically conjugated to the polyacrylamide hydrogel using the naturally occurring amine residues on the proteins. Sulfa-SANPAH (Thermo Fisher, Grand Island, N.Y., USA) was added in 50 mM 4-(2-hydroxyethyl)-1-piperazineethanesulfonic acid buffer (Sigma) and the hydrogels were placed under UV light (365 nm, 10 mW/cm^2) for 15 minutes, and incubated overnight with either 0.5 mg/mL solubilized healthy or IPF human lung ECM, or isolated ECM proteins (0.1 mg/mL human plasma fibronectin (Millipore, Billerica, Mass., USA) and 0.1 mg/mL collagen I (Sigma). Validation of protein conjugation was performed by tagging ECM with NHS-Fluorescein (5/6-carboxyfluorescein succinimidyl ester), dialyzing overnight, and rinsed extensively (Syed et al., J Vis, Exp, 2015, 97).
For short term (7 day) differentiation studies, PC (passage 3-7) were seeded on healthy or IPF lung tissue slices, polyacrylamide hydrogels, or 25 mm glass coverslips (VWR) at 100×10^3 cells per sample and activated with control media (non-activated), or 1 ng/mL TGF-β1 (PeproTech, Rocky Hill, N.J., USA) for 7 days (18, 19). For bleomycin activation, the cells were activated with 1 μg/mL bleomycin sulfate (Cayman Chemical, Ann Arbor, Mich.) for 1 day and the media was replaced with non-activated media for the remaining 6 days (Sava et al., Microcirculation, 2015, 22:54-67; Sterling et al., J Bio Chem, 1983, 258:14438-14444). TGF-β1 and bleomycin concentrations were based on reports consistent with activation of fibroblasts (Sava et al., Microcirculation, 2015, 22:54-67; Maroni and Davis, Bio Reprod, 2012, 87:127). Treatment with CCG-1423 (Sigma) was performed at day 0 for the full 7 days, and labeled as early treatment, or at day 7 and performed for 7 days, and labeled as late treatment. […]

In experiment [3] the test system is fibrosis in mouse models. The conditions noted are these: in vivo mouse models; cited from earlier work.
In experiment [4] the test system is human microvascular pericytes (PC). Kind of experiment: PC on high stiffness polyacrylamide hydrogels treated with CCG-1423; α-SMA by flow cytometry, F-Actin staining. It is filed as cell-based. The conditions noted are these: for detectable quantities of α-SMA: high-stiffness hydrogels, versus naive PC; for detectable quantities of α-SMA / decrease in expression of α-SMA: flow cytometry; for decrease in expression of α-SMA: 1.0 nM. As to the method:
as §1, §2
For short term (7 day) differentiation studies, PC (passage 3-7) were seeded on healthy or IPF lung tissue slices, polyacrylamide hydrogels, or 25 mm glass coverslips (VWR) at 100×10^3 cells per sample and activated with control media (non-activated), or 1 ng/mL TGF-β1 (PeproTech, Rocky Hill, N.J., USA) for 7 days (18, 19). For bleomycin activation, the cells were activated with 1 μg/mL bleomycin sulfate (Cayman Chemical, Ann Arbor, Mich.) for 1 day and the media was replaced with non-activated media for the remaining 6 days (Sava et al., Microcirculation, 2015, 22:54-67; Sterling et al., J Bio Chem, 1983, 258:14438-14444). […]

Setting [5] is: low, medium, high stiffness hydrogels with fibronectin and collagen I, TGF-β1 1 ng/mL 7 days or bleomycin 1 μg/mL 1 day, flow cytometry.

For the compound `Cc1ccc(=O)n(-c2ccccc2)c1` [pirfenidone], in experiment [1], the “decline in forced vital capacity” value is reported as “reducing the decline in forced vital capacity”.

With bleomycin sulfate, in experiment [2] (setting [5]), the “vimentin expression compared to non-activated PC on substrates of the same stiffness” value is recorded as “significantly increased” and the “α-SMA expression compared to non-activated PC on substrates of the same stiffness” value is “significantly increased”. Also, in experiment [2] (medium and high stiffness substrates), the “cell area and elongation (aspect ratio)” value was “largest area and elongation”.

For the compound `CC(ONC(=O)c1cc(C(F)(F)F)cc(C(F)(F)F)c1)C(=O)Nc1ccc(Cl)cc1` (stereo not shown) [CCG-1423], in experiment [3], the prevention of fibrosis entry was “effective in preventing fibrosis”. Also, the “detectable quantities of α-SMA” value is given as “significantly reduced” in experiment [4] (CCG-1423 treatment at day 0 of PC culture, P<0.001) and “significantly reduced” in experiment [4] (CCG-1423 treatment at day 7 of PC culture, P=0.039). The “cell F-Actin architecture” value in experiment [4] (F-Actin staining, high stiffness hydrogel) is reported as “did not alter”. Moreover, the “decrease in expression of α-SMA” value in experiment [4] (early time-point (day 0) treatment for 7 days, high stiffness hydrogel) is recorded as 38.2±4.2%; in experiment [4] (late time point (day 7) treatment for additional 7 days, high stiffness hydrogel), 20.4±8.0%.

(Values after patent US20180298344A1, “Realistic Humanized Model of Disease Matrix Environment for Evaluation of Therapeutic Reversal or Cell Fate” (Yale University, priority 2017, published 2018).)
